In ChEMBL document CHEMBL1133730 (J Med Chem, 2000):

Experiments:
[1] = biological target: Adenosine receptor A2a (Homo sapiens, UniProt P29274); assay: Displacement of [3H]ZM241385 from human adenosine A2A receptor expressed in HEK cells.
[2] = biological target: T1, Adenosine receptor A3 (Homo sapiens, UniProt P0DMS8); assay: Displacement of [125I]- AB-MECA from human adenosine A3 receptor expressed in HEK cell in the absence of ADA; assay type: cell-based, HEK293
T1 sequence (P0DMS8 whole entry): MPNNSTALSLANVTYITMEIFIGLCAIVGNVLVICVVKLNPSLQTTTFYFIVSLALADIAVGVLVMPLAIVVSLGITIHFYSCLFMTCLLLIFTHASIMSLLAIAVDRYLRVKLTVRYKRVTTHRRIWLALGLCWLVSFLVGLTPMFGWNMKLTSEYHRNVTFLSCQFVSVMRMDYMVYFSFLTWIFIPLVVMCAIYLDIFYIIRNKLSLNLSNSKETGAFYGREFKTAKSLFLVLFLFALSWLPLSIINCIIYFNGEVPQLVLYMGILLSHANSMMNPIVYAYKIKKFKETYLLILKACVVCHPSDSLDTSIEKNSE

[3] = biological target: T2, Adenosine receptor A1 (Rattus norvegicus, UniProt P25099)
T2 sequence (P25099 whole entry): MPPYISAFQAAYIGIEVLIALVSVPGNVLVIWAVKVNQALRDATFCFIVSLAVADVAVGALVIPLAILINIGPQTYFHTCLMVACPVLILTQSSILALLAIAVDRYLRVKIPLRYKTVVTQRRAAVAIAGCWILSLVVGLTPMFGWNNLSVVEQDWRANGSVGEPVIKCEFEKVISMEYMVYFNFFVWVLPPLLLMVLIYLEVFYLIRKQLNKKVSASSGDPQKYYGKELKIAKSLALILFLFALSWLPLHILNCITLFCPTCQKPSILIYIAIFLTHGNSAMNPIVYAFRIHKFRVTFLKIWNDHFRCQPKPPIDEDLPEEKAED

[4] = biological target: T3, Adenosine receptor A2b (Homo sapiens) (UniProt P29275); assay: Displacement of [3H]- ZM-241385 from human adenosine A2B receptor expressed in HEK cell at 50 uM; assay type: cell-based; settings: HEK293
T3 sequence (whole entry): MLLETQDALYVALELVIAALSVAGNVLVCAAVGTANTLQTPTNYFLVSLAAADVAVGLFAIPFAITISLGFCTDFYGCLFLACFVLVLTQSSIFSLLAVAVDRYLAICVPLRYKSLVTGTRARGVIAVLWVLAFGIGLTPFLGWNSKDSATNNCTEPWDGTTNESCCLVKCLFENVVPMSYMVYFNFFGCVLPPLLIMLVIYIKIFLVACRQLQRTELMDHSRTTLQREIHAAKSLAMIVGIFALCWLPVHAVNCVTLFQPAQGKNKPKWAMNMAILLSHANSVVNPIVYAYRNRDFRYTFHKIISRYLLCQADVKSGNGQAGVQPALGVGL

[5] = biological target: Adenosine receptors; A1 & A3 (Rattus norvegicus) (UniProt P25099+P28647); assay: Relative binding affinity for Adenosine A1 and A3 receptors; assay type: protein assay
[6] = biological target: T4, Adenosine receptor A3 (Homo sapiens) (UniProt P0DMS8); assay: Maximum stimulation against human adenosine A3 receptor
T4 sequence (whole entry): T1 sequence (P0DMS8 whole entry)

[7] = biological target: T5, Adenosine receptor A3 (Rattus norvegicus, UniProt P28647); assay: Displacement of [125I]- AB-MECA from rat adenosine A3 receptor expressed in CHO cells; assay type: cell-based
T5 sequence (P28647 whole entry): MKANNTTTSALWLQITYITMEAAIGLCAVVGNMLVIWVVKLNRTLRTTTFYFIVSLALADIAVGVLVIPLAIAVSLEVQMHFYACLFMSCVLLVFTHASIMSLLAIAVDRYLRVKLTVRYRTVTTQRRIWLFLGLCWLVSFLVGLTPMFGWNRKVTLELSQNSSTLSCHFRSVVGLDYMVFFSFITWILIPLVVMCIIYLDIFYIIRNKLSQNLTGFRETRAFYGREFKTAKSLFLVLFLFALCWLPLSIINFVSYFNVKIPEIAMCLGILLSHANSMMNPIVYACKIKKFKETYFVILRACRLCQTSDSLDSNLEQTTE

[8] = biological target: T6, Adenosine receptor A1 (Rattus norvegicus) (UniProt P25099); assay: Maximum stimulation against adenosine A1 receptor of rat cerebral cortical membrane
T6 sequence (whole entry): T2 sequence (P25099 whole entry)

[9] = biological target: T7, Adenosine receptor A1 (Homo sapiens, UniProt P30542); assay: Stimulation of [35S]GTP-gamma-S, binding to human adenosine A1 receptor; assay type: functional
T7 sequence (P30542 whole entry): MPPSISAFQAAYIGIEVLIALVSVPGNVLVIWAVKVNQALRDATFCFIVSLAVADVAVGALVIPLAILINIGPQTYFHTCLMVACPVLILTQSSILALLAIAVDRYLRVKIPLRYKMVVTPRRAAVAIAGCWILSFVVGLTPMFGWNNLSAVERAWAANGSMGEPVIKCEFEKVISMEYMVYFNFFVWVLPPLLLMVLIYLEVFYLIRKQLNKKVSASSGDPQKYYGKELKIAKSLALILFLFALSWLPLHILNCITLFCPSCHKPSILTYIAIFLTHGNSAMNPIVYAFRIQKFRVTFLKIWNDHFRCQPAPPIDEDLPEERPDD

[10] = biological target: T2, Adenosine receptor A1; remark: listed apart in the source
[11] = biological target: Adenosine receptor A2a (Rattus norvegicus, UniProt P30543)
Adenosine receptor A2a (Rattus norvegicus, UniProt P30543), sequence (P30543 whole entry): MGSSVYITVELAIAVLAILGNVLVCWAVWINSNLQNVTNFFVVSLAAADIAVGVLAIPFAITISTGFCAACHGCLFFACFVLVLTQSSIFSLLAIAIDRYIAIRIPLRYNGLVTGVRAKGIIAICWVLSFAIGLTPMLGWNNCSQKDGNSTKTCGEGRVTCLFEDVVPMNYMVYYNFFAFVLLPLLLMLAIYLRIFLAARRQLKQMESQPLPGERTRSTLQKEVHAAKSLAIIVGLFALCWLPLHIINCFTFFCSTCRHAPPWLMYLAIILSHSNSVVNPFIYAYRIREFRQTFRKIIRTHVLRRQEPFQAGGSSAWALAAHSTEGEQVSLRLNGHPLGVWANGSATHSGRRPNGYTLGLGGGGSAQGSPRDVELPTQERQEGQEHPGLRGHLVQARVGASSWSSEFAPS

[12] = biological target: T1, Adenosine receptor A3; assay: Stimulation of [35S]GTP-gamma-S, against human adenosine A3 receptor; assay type: functional
[13] = biological target: T8, Adenosine receptor A2b (Homo sapiens, UniProt P29275); assay: biochemical
T8 sequence (P29275 whole entry): T3 sequence (whole entry)

[14] = biological target: T1, Adenosine receptor A3; assay: Displacement of [125I]- AB-MECA from human adenosine A3 receptor expressed in HEK cells; assay type: cell-based, HEK293
[15] = biological target: T9, Adenosine receptor A1 (Homo sapiens) (UniProt P30542); assay: Maximum stimulation against human adenosine A1 receptor
T9 sequence (whole entry): T7 sequence (P30542 whole entry)

[16] = biological target: Adenosine receptor A2a (Rattus norvegicus) (UniProt P30543); assay: Displacement of [3H]-CGS- 21680 from adenosine A2A receptor of rat striatal membranes at 100 uM; assay type: cell membranes; settings: Membrane
Adenosine receptor A2a (Rattus norvegicus), sequence (P30543 whole entry): as above

[17] = biological target: T6, Adenosine receptor A1 (Rattus norvegicus); assay: Displacement of [3H]R-PIA from adenosine A1 receptor in rat brain membranes at 100 uM; assay type: cell membranes
[18] = biological target: T3, Adenosine receptor A2b (Homo sapiens); assay: Displacement of [3H]ZM241,385 binding to human adenosine A2B receptor expressed in HEK cells at 100 uM; assay type: cell-based; settings: HEK293

Adenosine receptor A2a (Homo sapiens, UniProt P29274), sequence (P29274 whole entry): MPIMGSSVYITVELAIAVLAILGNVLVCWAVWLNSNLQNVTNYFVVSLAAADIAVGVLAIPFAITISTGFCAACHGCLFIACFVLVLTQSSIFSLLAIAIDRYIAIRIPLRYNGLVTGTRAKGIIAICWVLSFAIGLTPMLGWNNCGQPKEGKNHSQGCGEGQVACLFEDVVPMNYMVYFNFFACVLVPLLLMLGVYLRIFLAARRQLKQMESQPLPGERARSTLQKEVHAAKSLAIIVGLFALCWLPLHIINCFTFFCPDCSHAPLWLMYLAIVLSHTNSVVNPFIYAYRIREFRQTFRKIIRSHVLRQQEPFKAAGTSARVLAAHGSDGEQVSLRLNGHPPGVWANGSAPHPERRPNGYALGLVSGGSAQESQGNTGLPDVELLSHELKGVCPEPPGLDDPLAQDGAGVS

SMILES | Ki [3] | Ratio [5] | Max [6] | Max [8] | EC50 [9] | Ki [11] | EC50 [12] | Ki [14] | Max [15] | also measured
Nc1ncnc2c1ncn2[C@H]1[C@H](O)[C@H](O)[C@]2(CO)C[C@H]12 | 1680 nM | 4.2 |  |  |  |  |  |  |  | Ki [1]: 22500 nM; Ki [2]: 404 nM; Displacement [4]: 35%
CCNC(=O)[C@H]1O[C@@H](n2cnc3c(N)ncnc32)[C@H](O)[C@@H]1O |  |  | 100% |  |  |  |  |  |  | 
Nc1ncnc2c1ncn2[C@@H]1O[C@H](CO)[C@@H](O)[C@H]1O [ADENOSINE] |  |  |  |  |  |  |  |  |  | Ki [7]: 1000 nM
OC[C@@]12C[C@@H]1[C@@H](n1cnc3c(NC4CCCC4)ncnc31)[C@H](O)[C@@H]2O | 5.06 nM | 0.03 | 14% | 75% | 21.5 nM | 6800 nM | > 10000 nM | 170 nM | 102% | EC50 [10]: 100 nM; Ki [13]: 139000 nM
OC[C@H]1C[C@@H](n2cnc3c(NCc4cccc(I)c4)ncnc32)[C@H](O)[C@@H]1O | 25900 nM | 13 | 14% |  | > 10000 nM |  | > 10000 nM | 1960 nM | 5% | Displacement [16]: < 10%
OC[C@@]12C[C@@H]1[C@@H](n1cnc3c(NCc4cccc(I)c4)nc(Cl)nc31)[C@H](O)[C@@H]2O | 141 nM | 63 | 22% | 48% | 142 nM | 732 nM | 0.67 nM |  | 91% | EC50 [10]: 684 nM; Ki [13]: 41000 nM
OC[C@H]1O[C@@H](n2cnc3c(NCc4cccc(I)c4)ncnc32)[C@H](O)[C@@H]1O |  |  | 100% | 95% |  |  |  |  | 91% | 
Nc1ncnc2c1ncn2[C@@]12C[C@H]1[C@H](CO)[C@@H](O)[C@H]2O |  | > 1 |  |  |  |  |  |  |  | Ki [1]: > 100000 nM; Ki [2]: 62500 nM; Displacement [4]: 20%; Displacement [17]: 15%
OC[C@H]1O[C@@H](n2cnc3c(NC4CCCC4)ncnc32)[C@H](O)[C@@H]1O [N6-CYCLOPENTYLADENOSINE] |  |  | 100% |  |  | 857 nM |  |  | 100% | 
OC[C@@]12C[C@@H]1[C@@H](n1cnc3c(NC4CCCC4)nc(Cl)nc31)[C@H](O)[C@@H]2O | 8.76 nM | 0.019 | 15% | 96% | 31.2 nM | 3390 nM | > 10000 nM | 466 nM | 97% | Displacement [18]: 27%; EC50 [10]: 145 nM
OC[C@@]12C[C@@H]1[C@@H](n1cnc3c(NCc4cccc(I)c4)ncnc31)[C@H](O)[C@@H]2O |  |  | 45.3% |  | 218 nM | 601 nM | 0.7 nM | 4.13 nM | 86% | Ki [13]: 12100 nM
